Data: patent US4029801A, “Pharmaceutical compositions and methods of treating hypertension” (priority 1970, dated 1977)
Read-outs that look alike come from different tables or passages of the source.

How the values were obtained:
blood pressure = assay: Tests for action on the cardiovascular system: hypotensive activity (activity in method 1, rats or cats, or method 2), reported in words; assay type: in vivo, rat, cat; settings: standard test procedure, result in words
Method: Tests for action on the cardiovascular system were conducted according to one of the following procedures:
Cats were anaesthetised with pentobarbitone sodium (30 mg/kg) and the cephalic vein, femoral and carotid arteries and trachea were cannulated. The carotid cannula was introduced into the left ventricle and the femoral cannula into the aorta. Blood pressure and heart rate were recorded from the aortic cannula and left ventricular pressure from the carotid cannula. The test compunds were administered intravenously (0.1-25.6 mg/kg).
Method 2 (hypertensive rats)
Male or female rats are rendered hypertensive by applying a figure of 8 ligature around one kidney and contralateral nephrectomy. Blood pressure stabilises at a hypertensive level after 6 weeks. Systolic pressure is measured indirectly using a Decker Caudal Plethysmograph A control group of rats is run with each group treated with drug. Each group usually consists of six rats. Drugs are usually administered by the IP or oral routes. Pressures are read prior to drug administration and at two and 24 hours thereafter.

Depressant activity = assay type: in vivo; settings: result in words
[1] = system: blood pressure and heart rate; assay: Method 1 (rat): hypotensive activity in anaesthetised rats, i.v.; settings: for minimal effective dose: Rattus norvegicus, iv
Method: Rats were anaesthetised with pentobarbitone sodium (60 mg/kg) and the jugular vein, trachea and carotid artery were cannulated. […] A decrease in heart rate of more than 30% from control values was considered to be significant bradycardia.

histamine = molecular target: T1, histamine (Cavia porcellus, UniProt P31389); assay: Antihistamine activity by the method of Alps et al.; settings: for antihistamine activity: result in words
T1 construct: from tissue

α-adrenoceptor = assay: α-Adrenoceptor antagonism on the guinea pig aortic strip; settings: for α-blockade pA2: Table 4; for α-adrenoceptor antagonism: result in words
Excerpt: Carried out on the guinea pig aortic strip [Furchgott and Bhadrakom (1953) J. Pharmac. exp. Ther. 108, 129-143] by the method of Alps et al [Br. J. Pharmac. 1972 44, 52-62].

[2] = 0.25 h, read-out: Hypotensive Activity
[3] = Table 4, read-out: Antihistamine pA2 (converted)

T1 sequence (P31389 whole entry): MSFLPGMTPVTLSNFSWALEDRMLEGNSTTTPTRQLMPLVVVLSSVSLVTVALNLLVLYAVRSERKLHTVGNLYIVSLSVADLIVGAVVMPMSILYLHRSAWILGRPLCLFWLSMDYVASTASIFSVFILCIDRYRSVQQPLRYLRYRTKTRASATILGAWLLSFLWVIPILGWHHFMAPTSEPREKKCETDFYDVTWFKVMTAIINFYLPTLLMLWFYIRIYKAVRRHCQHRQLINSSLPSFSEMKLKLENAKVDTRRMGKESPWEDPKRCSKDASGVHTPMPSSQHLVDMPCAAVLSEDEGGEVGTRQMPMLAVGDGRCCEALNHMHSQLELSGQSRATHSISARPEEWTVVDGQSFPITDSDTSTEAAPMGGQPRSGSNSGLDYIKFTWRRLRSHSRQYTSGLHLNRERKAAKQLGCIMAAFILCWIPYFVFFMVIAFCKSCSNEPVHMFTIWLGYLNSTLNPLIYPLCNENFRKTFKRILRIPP

SMILES | hypotensive activity (blood pressure) | depressant activity (Depressant activity) | minimal effective dose [1, 2] | antihistamine activity (histamine) | α-blockade pA2 (α-adrenoceptor) | other results
COc1ccc(CCN2CCC(N)CC2)cc1OC [Example 4, 1-[2-(3,4-Dimethoxyphenyl)ethyl]-4-aminopiperidine] | hypotensive | depressant activity |  |  |  | 
COc1ccc(CCN2CCC(NC(=O)c3ccc4c(c3)OCO4)CC2)cc1OC [Example 7, 1-[2-(3,4-Dimethoxyphenyl)ethyl]-4-piperonylamidopiperidine] | hypotensive | depressant activity | < 30 mg/kg |  |  | 
O=C(NC1CCN(CCc2cccc3ccccc23)CC1)c1ccccc1 [Example 12, 1-[2-(1-Naphthyl)ethyl]-4-benzamidopiperidine] |  | depressant activity | < 30 mg/kg |  |  | 
O=C(NC1CCN(CCC2=CCc3ccccc32)CC1)c1ccccc1 [Example 14, 1-[2-(3-Indenyl)ethyl]-4-benzamidopiperidine] | hypotensive activity |  | 6.4 to 12.8 mg/kg | antihistamine activity |  | 
O=C(NC1CCN(CCCC2=CCc3ccccc32)CC1)c1ccccc1 [Example 15, 1-[3-(3-Indenyl)propyl]-4-benzamidopiperidine] | hypotensive |  | 6.4 to 12.8 mg/kg | antihistamine activities | 7.4 | 
Cc1ccccc1NC(=O)CCN1CCC(NC(=O)c2ccccc2)CC1 [Example 16, 1-[N-(2-Methylphenyl)carbamoylethyl]-4-benzamidopiperidine] |  | depressant activity |  |  |  | 
CC(=O)Nc1ccc(OCC(O)CN2CCC(NC(=O)c3ccccc3)CC2)cc1 (stereo not shown) [Example 17, 1-[1-(4-Acetamidophenoxy)-2-hydroxyprop-3-yl]-4-benzamidopiperidine] | hypotensive activity |  | < 30 mg/kg | antihistamine activity |  | Kb (histamine; [3]): 100 nM
CC(=O)Nc1ccc(O)c(CN2CCC(NC(=O)c3ccccc3)CC2)c1 [Example 18, 1-(5-Acetamido-2-hydroxybenzyl)-4-benzamidopiperidine] |  | depressant activity | < 30 mg/kg |  |  | 
O=C(NC1CCN(CC(O)COc2cccc3ccccc23)CC1)c1ccccc1 (stereo not shown) [Example 21, 1-[3-(1-Naphthoxy)-2-hydroxyprop-1-yl]-4-benzamidopiperidine] | hypotensive activity | some depressant activity | 6.4 to 12.8 mg/kg |  |  | 
Nc1ccc(CCN2CCC(NC(=O)c3ccccc3)CC2)cc1 [Example 23, 1-[2-(p-Aminophenyl)ethyl]-4-benzamidopiperidine] | hypotensive activity | depressant activity | < 30 mg/kg |  |  | 
O=C(NC1CCN(CCc2ccccc2)CC1)c1ccccc1 [Example 27, 1-Phenethyl-4-benzamidopiperidine] | hypotensive activity |  | 1.6 to 3.2 mg/kg |  |  | pA2 (α-adrenoceptor antagonism) (α-adrenoceptor; guinea pig aortic strip): 5.7; Kb (histamine; Table 2): 79.4 nM; minimal effective dose ([1]; read-out: Significant hypotension (dose; fall of 30 mm mercury or more in diastolic pressure)): 3.2 mg/kg; Fatal (dose) ([1]; anaesthetised rat, i.v., cumulative dose): 12.8 to 25.6 mg/kg
O=C(CN1CCC(NC(=O)c2ccccc2)CC1)c1ccc(Cl)c(Cl)c1 [Example 34] | hypotensive | depressant activities | < 30 mg/kg |  |  | 
Nc1ccccc1CCN1CCC(NC(=O)c2ccccc2)CC1 [Example 35, 1-[2-(o-Aminophenyl)ethyl]-4-benzamidopiperidine] | hypotensive | depressant activities | 6.4 to 12.8 mg/kg |  |  | 
O=C(NC1CCN(CCCCc2ccc(F)cc2)CC1)c1ccccc1 [Example 40, 1-[4-(p-Fluorophenyl)-n-butyl]-4-benzamidopiperidine] | hypotensive activity |  | 1.6 to 3.2 mg/kg | anti-histamine activity | 6.4 | α-adrenoceptor antagonism (α-adrenoceptor): α-adrenoceptor antagonism; Kb (histamine; [3]): 31.6 nM
Cc1ccc(C)c(C(=O)CCCN2CCC(NC(=O)c3ccccc3)CC2)c1 [Example 44, 4-Benzamido-1-[4-(2,5-dimethylphenyl)-4-oxobutyl]piperidine] | hypotensive activity |  | 1.6 to 3.2 mg/kg | antihistamine | 7.5 | α-adrenoceptor antagonism (α-adrenoceptor): α-adrenoceptor antagonist activities; Kb (histamine; [3]): 20 nM
Cc1ccc(C(=O)CCCN2CCC(NC(=O)c3ccccc3)CC2)c(C)c1 [Example 45, 4-Benzamido-1-[4-(2,4-dimethylphenyl)-4-oxo-butyl]piperidine] | hypotensive activity |  | 1.6 to 3.2 mg/kg | antihistamine | 7.2 | α-adrenoceptor antagonism (α-adrenoceptor): α-adrenoceptor antagonist activity; Kb (histamine; [3]): 10 nM
O=C(NC1CCN(CCCCc2ccccc2)CC1)c1ccccc1 [Example 46, 1-(4-Phenylbutyl)-4-benzamidopiperidine] | hypotensive activity |  | 6.4 to 12.8 mg/kg | antihistamine activity | 6.95 | α-adrenoceptor antagonism (α-adrenoceptor): α-adrenoceptor antagonist; Kb (histamine; [3]): 39.8 nM
O=C(CCCN1CCC(NC(=O)c2ccccc2)CC1)c1ccc2c(c1)CCCC2 [Example 58, 1-[4-(1,2,3,4-Tetrahydro-6-naphthyl)-4-oxobutyl]-4-benzamidopiperidine] | hypotensive activity |  | 1.6 to 3.2 mg/kg |  | 6.9 | 
O=C(CCN1CCC(NC(=O)c2ccccc2)CC1)c1ccccc1 [Example 69, 4-Benzamido-1-(3-phenyl-3-oxopropyl)piperidine] | marked hypotensive activity |  | 1.6 to 3.2 mg/kg |  | 6.6 | 
CC(C)(C)c1ccc(C(=O)CCCN2CCC(NC(=O)c3ccccc3)CC2)cc1 [Example 70, 4-Benzamido-1-[4-(4-tert-butyl-phenyl)-4-oxobutyl]piperidine] | hypotensive activity |  | 0.8 mg/kg |  | 6.6 | 
O=C(CCCN1CCC(NC(=O)c2ccc3c(c2)OCO3)CC1)c1ccccc1 [Example 74, 4-Piperonylamido-1-(4-phenyl-4-oxobutyl)-piperidine] | hypotensive activity |  | 6.4 to 12.8 mg/kg |  | 6.4 | 
O=C(CCCN1CCC(NC(=O)C2CCCCC2)CC1)c1ccccc1 [Example 75, 4-Cyclohexanecarboxamido-1-(4-phenyl-4-oxobutyl)piperidine] | marked hypotensive activity |  | 6.4 to 12.8 mg/kg |  | 6.9 | 
O=C(NC1CCN(CCCC(O)c2ccc3c(c2)CCCC3)CC1)c1ccccc1 (stereo not shown) [Example 79, 1-[4-(1',2',3',4'-Tetrahydro-6'-naphthyl)-4-hydroxybutyl]-4-benzamidopiperidine] | hypotensive activity |  | 1.6 to 3.2 mg/kg |  | 6.05 | Kb (histamine; [3]): 100 nM
O=C(NC1CCN(CCCCc2ccc3c(c2)CCCC3)CC1)c1ccccc1 [Example 81, 1-[4-(1',2',3',4'-Tetrahydro-6-naphthyl)butyl]-4-benzamidopiperidine] | hypotensive activity |  | 1.6 to 3.2 mg/kg |  | 6.6 | 
O=C(NC1CCN(CCCC(c2ccc(F)cc2)c2ccc(F)cc2)CC1)c1ccccc1 [Example 88, 4-(4-Benzamidopiperid-1-yl)-1,1-(di-p-fluorophenyl)butane] | hypotensive activity |  | 1.6 to 3.2 mg/kg |  | 5.9 | 
O=C(NC1CCN(CCC(O)c2ccc3c(c2)OCCO3)CC1)c1ccccc1 (stereo not shown) [Example 92, 1-[3-(1,4-Benzodioxan-6-yl)-3-hydroxypropyl]-4-benzamido piperidine] | hypotensive activity |  |  |  | 6.6 | hypotensive activity ([1]; Table 3, cumulative iv dose, fall in diastolic blood pressure of 30 mm or more for at least 15 min): + ++
O=C(NC1CCN(CCc2ccncc2)CC1)c1ccccc1 [Example 93, 1-[2-(4-Pyridyl)ethyl]-4-benzamidopiperidine] | marked hypotensive activity |  | < 30 mg/kg | antihistamine activity |  | 
O=C(NC1CCN(CCc2c[nH]cn2)CC1)c1ccccc1 [Example 96, 1-[2-(4-Imidazolyl)ethyl]-4-benzamidopiperidine] | hypotensive activity |  | 6.4 to 12.8 mg/kg | anti-histamine activity |  | 
O=C(NC1CCN(CCc2csc3ccccc23)CC1)c1ccccc1 [Example 100, 1-[2-(3-Benzo[b]thienyl)ethyl]-4-benzamidopiperidine] | hypotensive activity |  | < 30 mg/kg | antihistamine activity |  | 
O=C(NC1CCN(CCc2c[nH]c3c2ccc2ccccc23)CC1)c1ccccc1 [Example 101, 1-[2-(3-Benz[g]indolyl)ethyl]-4-benzamidopiperidine] | marked hypotensive activity | depressant activity | 6.4 to 12.8 mg/kg |  |  | 
